According to US11814367B2, “Inhibitors of glycogen synthase 1 (GYS1) and methods of use thereof” (Maze Therapeutics, Inc., priority 2021, dated 2023):

What was measured:
[1] = test system: hGYS1 enzyme / glycogen synthesis in HeLa cells; assay: GYS1 cell based assay (glycogen synthesis, Glucose-glo); set-up: species or system human; conditions: 24 h incubation, 20 mM glucose, geometric mean of at least 2 runs
Summary of the method: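 HeLa cells starved 24 h in medium containing only 1× Glutamax were plated onto compound in medium with 20 mM glucose (1% DMSO final) for 24 h, 37 °C, 5% CO2. Acid lysates were Tris-quenched, glucoamylase-digested (pH 5.3, 1 h, 37 °C) and read by Glucose-glo luminescence. IC50 came from Hill fits, as geometric mean of ≥2 runs.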

[2] = molecular target: hGYS2 enzyme (recombinant hGYS2/GN1 protein) (Homo sapiens (Human), UniProt P54840); assay: GYS2 coupled enzyme assay (PK/LDH); type: biochemical; conditions: geometric mean of at least 2 assay runs on separate days, read-out: Avg_IC50
Summary of the method: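 Read-out: NADH loss at 340 nm, read each minute for 10 min, slope normalized to controls, duplicate % inhibition fit to Hill (0–100). Enzyme: 200 nM hGYS2/GN1; substrate 2 mM UDP-glucose plus 0.2% glycogen and 2 mM G6P; pH 7.5 Tris, 2.5% DMSO.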

[3] = molecular target: hGYS1 enzyme (recombinant hGYS1/GN1 protein) (Homo sapiens (Human), UniProt P13807); assay: GYS1 coupled enzyme assay (PK/LDH); type: biochemical; conditions: hGYS1/GN1 50 nM, UDP-Glucose 0.8 mM, G6P 1 mM; geometric mean of at least 2 runs
hGYS1 enzyme (recombinant hGYS1/GN1 protein), sequence (P13807 whole entry): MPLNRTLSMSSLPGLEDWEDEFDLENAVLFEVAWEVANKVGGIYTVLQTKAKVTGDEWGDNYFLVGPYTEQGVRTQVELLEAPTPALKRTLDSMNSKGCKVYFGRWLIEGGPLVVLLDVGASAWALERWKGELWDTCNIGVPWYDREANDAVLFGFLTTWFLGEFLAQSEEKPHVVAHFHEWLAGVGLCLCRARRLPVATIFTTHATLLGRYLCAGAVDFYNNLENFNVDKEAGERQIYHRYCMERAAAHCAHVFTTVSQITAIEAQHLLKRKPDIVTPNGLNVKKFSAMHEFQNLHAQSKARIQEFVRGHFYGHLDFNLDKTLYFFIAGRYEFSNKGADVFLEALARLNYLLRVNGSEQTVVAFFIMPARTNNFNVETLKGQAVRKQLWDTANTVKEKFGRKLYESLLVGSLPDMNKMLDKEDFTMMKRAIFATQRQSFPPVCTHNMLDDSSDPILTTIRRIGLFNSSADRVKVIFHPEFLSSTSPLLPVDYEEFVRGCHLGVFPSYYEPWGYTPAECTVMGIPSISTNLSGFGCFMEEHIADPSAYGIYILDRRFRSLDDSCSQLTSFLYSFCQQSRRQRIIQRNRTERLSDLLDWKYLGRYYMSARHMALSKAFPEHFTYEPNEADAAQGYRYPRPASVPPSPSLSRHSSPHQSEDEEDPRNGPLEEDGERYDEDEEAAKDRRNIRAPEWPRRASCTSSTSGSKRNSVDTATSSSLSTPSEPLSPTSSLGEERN
hGYS1 enzyme (recombinant hGYS1/GN1 protein), sequence (P46976 whole entry partner): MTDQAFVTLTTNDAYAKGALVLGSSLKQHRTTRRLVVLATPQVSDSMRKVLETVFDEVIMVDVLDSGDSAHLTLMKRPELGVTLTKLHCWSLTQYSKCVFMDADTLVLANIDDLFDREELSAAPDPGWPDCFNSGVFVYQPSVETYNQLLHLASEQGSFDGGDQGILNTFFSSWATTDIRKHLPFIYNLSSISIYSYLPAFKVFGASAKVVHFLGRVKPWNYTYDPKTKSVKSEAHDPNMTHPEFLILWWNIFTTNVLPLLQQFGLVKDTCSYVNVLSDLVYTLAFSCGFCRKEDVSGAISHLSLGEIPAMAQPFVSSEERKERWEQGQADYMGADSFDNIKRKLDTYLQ

hGYS2 enzyme (recombinant hGYS2/GN1 protein), sequence (P54840 whole entry): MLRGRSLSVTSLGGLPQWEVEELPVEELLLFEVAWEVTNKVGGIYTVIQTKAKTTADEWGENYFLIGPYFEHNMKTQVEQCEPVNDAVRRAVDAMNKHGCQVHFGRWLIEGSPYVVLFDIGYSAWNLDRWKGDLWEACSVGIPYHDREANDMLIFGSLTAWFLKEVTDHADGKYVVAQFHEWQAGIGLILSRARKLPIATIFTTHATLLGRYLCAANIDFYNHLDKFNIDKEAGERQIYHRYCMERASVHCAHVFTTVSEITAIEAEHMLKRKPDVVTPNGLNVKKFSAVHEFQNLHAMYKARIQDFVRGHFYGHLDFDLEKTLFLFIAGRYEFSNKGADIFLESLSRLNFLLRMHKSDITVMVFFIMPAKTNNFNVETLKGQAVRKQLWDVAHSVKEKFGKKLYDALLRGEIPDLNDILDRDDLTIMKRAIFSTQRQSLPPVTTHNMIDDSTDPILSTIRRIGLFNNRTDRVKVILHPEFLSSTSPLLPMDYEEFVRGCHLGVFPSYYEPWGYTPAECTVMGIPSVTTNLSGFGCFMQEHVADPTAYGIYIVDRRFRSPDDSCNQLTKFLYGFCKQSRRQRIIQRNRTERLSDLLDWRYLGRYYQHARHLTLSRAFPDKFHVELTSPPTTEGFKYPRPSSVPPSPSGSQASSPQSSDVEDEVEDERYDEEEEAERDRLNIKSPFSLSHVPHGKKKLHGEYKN
hGYS2 enzyme (recombinant hGYS2/GN1 protein), sequence (P46976 whole entry partner): as the sequence (P46976 whole entry partner) above

| Compound | IC50 ([1]; Homo sapiens, HeLa, 24 h) [nM] | IC50 [2] [nM] | IC50 [3] [nM] | IC50 [1] [nM] |
| --- | --- | --- | --- | --- |
| CC(C)c1ccc([C@@H](NC(=O)[C@@H]2C[C@@H](F)CN2C(=O)CCc2n[nH]c(=O)[nH]2)c2ccccc2)nc1 [Compound 287, (2S,4R)-4-fluoro-1-[3-(5-oxo-4,5-dihydro-1H-1,2,4-triazol-3-yl)propanoyl]-N-[(S)-phenyl[5-(propan-2-yl)pyridin-2-yl]methyl]pyrrolidine-2-carboxamide] | 11800 | > 100000 | 124 | – |
| O=C(N[C@@H](c1ccccc1)c1ccc(C2CC(F)(F)C2)c(F)n1)[C@@H]1C[C@@H](F)CN1C(=O)Cn1ccc(=O)[nH]c1=O [Compound 514, (2S,4R)-N-[(S)-[5-(3,3-difluorocyclobutyl)-6-fluoropyridin-2-yl](phenyl)methyl]-1-[2-(2,4-dioxo-1,2,3,4-tetrahydropyrimidin-1-yl)acetyl]-4-fluoropyrrolidine-2-carboxamide] | 770 | > 100000 | 7 | – |
| O=C(N[C@@H](c1ccccc1)c1ccc(C2CC(F)(F)C2)c(F)n1)[C@@H]1C[C@@H](F)CN1C(=O)Cc1[nH]nnc1C(F)(F)F [Compound 510, (2S,4R)-N-[(S)-[5-(3,3-difluorocyclobutyl)-6-fluoropyridin-2-yl](phenyl)methyl]-4-fluoro-1-{2-[4-(trifluoromethyl)-1H-1,2,3-triazol-5-yl]acetyl} pyrrolidine-2-carboxamide] | 230 | > 100000 | 9 | – |
| CC(=O)N(CCC(=O)N1C[C@H](F)C[C@H]1C(=O)N[C@@H](c1ccccc1)c1ccc(C(C)C)cc1)c1ccn(C)n1 [Compound 2, (2S,4R)-4-fluoro-1-{3-[N-(1-methyl-1H-pyrazol-3-yl)acetamido)propanoyl}-N-[(S)-phenyl[4-(propan-2-yl)phenyl]methyl]pyrrolidine-2-carboxamide] | 1090 | > 100000 | 59 | – |
| O=C(N[C@@H](c1ccccc1)c1ccc(C2CC2)c(F)c1)[C@@H]1C[C@@H](F)CN1C(=O)CNC(=O)N1CCN(CC(F)(F)F)CC1 [Compound 487, N-{2-[(2S,4R)-2-{[(S)-(4-cyclopropyl-3-fluorophenyl)(phenyl)methyl]carbamoyl}-4-fluoropyrrolidin-1-yl]-2-oxoethyl}-4-(2,2,2-trifluoroethyl) piperazine-1-carboxamide] | 2090 | > 100000 | 68 | – |
| Cc1coc(CC(=O)N2C[C@H](F)C[C@H]2C(=O)N[C@@H](c2ccccc2)c2ccc(C3CC(F)(F)C3)cn2)n1 [Compound 540, (2S,4R)-N-[(S)-[5-(3,3-difluorocyclobutyl)pyridin-2-yl] (phenyl)methyl]-4-fluoro-1-[2-(4-methyl-1,3-oxazol-2-yl)acetyl] pyrrolidine-2-carboxamide] | 590 | > 100000 | 47 | – |
| O=C(N[C@@H](c1ccccc1)c1ccc(C2CC2)c(F)n1)[C@@H]1C[C@@H](F)CN1C(=O)Cc1[nH]nnc1C(F)(F)F [Compound 307, (2S,4R)-N-[(S)-(5-cyclopropyl-6-fluoropyridin-2-yl)(phenyl)methyl]-4-fluoro-1-{2-[4-(trifluoromethyl)-1H-1,2,3-triazol-5-yl]acetyl}pyrrolidine-2-carboxamide] | 500 | > 100000 | 10 | – |
| O=C(N[C@@H](c1ccccc1)c1ccc(C2CC2)c(F)n1)[C@@H]1C[C@@H](F)CN1C(=O)Cn1cnc2ccccc21 [Compound 294, (2S,4R)-1-[2-(1H-1,3-benzodiazol-1-yl)acetyl]-N-[(S)-(5-cyclopropyl-6-fluoropyridin-2-yl)(phenyl)methyl]-4-fluoropyrrolidine-2-carboxamide] | 160 | > 100000 | 6 | – |
| CC1(c2ccc([C@@H](NC(=O)[C@@H]3C[C@@H](F)CN3C(=O)Cc3n[nH]c4ccccc34)c3ccccc3)nc2F)CC1 [Compound 588, (2S,4R)-4-fluoro-N-[(S)-[6-fluoro-5-(1-methylcyclopropyl)pyridin-2-yl] (phenyl)methyl]-1-[2-(1H-indazol-3-yl)acetyl]pyrrolidine-2-carboxamide] | 480 | > 100000 | 36 | – |
| CC1(c2ccc([C@@H](NC(=O)[C@@H]3C[C@@H](F)CN3C(=O)COC(=O)N3CCN(CC(F)(F)F)CC3)c3ccccc3)cc2F)CC1 [Compound 585, 2-[(2S,4R)-4-fluoro-2-{[(S)-[3-fluoro-4-(1-methylcyclopropyl)phenyl](phenyl)methyl]carbamoyl}pyrrolidin-1-yl]-2-oxoethyl 4-(2,2,2-trifluoroethyl) piperazine-1-carboxylate] | 3210 | > 100000 | 202 | – |
| Cc1cc(C(NC(=O)[C@@H]2C[C@@H](F)CN2C(=O)Cc2cnn[nH]2)c2ccccc2)cc(F)c1C(C)C (single isomer, unassigned) [Compound 680, (2S,4R)-4-fluoro-N-[(S) or (R)-[3-fluoro-5-methyl-4-(propan-2-yl)phenyl](phenyl)methyl]-1-[2-(1H-1,2,3-triazol-5-yl)acetyl]pyrrolidine-2-carboxamide] | – | 93000 | 15 | 270 |

More lines, now with the values ahead:

| IC50 ([1]; Homo sapiens, HeLa, 24 h) [nM] | IC50 [2] [nM] | IC50 [3] [nM] | IC50 [1] [nM] | Compound |
| --- | --- | --- | --- | --- |
| 140 | > 100000 | 12 | – | CC(C)c1ccc([C@@H](NC(=O)[C@@H]2C[C@@H](F)CN2C(=O)Cn2cc(N(C)C)nn2)c2ccccc2)cc1F [Compound 377, (2S,4R)-1-{2-[4-(dimethylamino)-1H-1,2,3-triazol-1-yl]acetyl}-4-fluoro-N-[(S)-[3-fluoro-4-(propan-2-yl)phenyl](phenyl)methyl] pyrrolidine-2-carboxamide] |
| 70 | > 100000 | 6 | – | Cc1nccc(NCC(=O)N2C[C@H](F)C[C@H]2C(=O)N[C@@H](c2ccccc2)c2ccc(C(C)C)c(F)n2)n1 [Compound 404, (2S,4R)-4-fluoro-N-[(S)-[6-fluoro-5-(propan-2-yl)pyridin-2-yl](phenyl)methyl]-1-{2-[(2-methylpyrimidin-4-yl)amino]acetyl} pyrrolidine-2-carboxamide] |
| 650 | > 100000 | 55 | – | Cc1nn(CC(=O)N2C[C@H](F)C[C@H]2C(=O)N[C@@H](c2ccccc2)c2ccc(C3CC(F)(F)C3)cn2)c(=O)o1 [Compound 541, (2S,4R)-N-[(S)-[5-(3,3-difluorocyclobutyl)pyridin-2-yl](phenyl)methyl]-4-fluoro-1-[2-(5-methyl-2-oxo-2,3-dihydro-1,3,4-oxadiazol-3-yl)acetyl]pyrrolidine-2-carboxamide] |
| 280 | > 96700 | 20 | – | Cn1nc(CC(=O)N2C[C@H](F)C[C@H]2C(=O)N[C@@H](c2ccccc2)c2ccc(C3(C)CC3)c(F)n2)c2ccccc21 [Compound 596, (2S,4R)-4-fluoro-N-[(S)-[6-fluoro-5-(1-methylcyclopropyl)pyridin-2-yl](phenyl)methyl]-1-[2-(1-methyl-1H-indazol-3-yl)acetyl]pyrrolidine-2-carboxamide] |
| – | > 100000 | 13 | 660 | CC(C)c1ccc(C(NC(=O)[C@@H]2C[C@@H](F)CN2C(=O)Cc2cnn[nH]2)c2ccc3cn[nH]c3c2)nc1F (single isomer, unassigned) [Compound 632, (2S,4R)-4-fluoro-N-[(S) or (R)-[6-fluoro-5-(propan-2-yl)pyridin-2-yl](1H-indazol-6-yl)methyl]-1-[2-(1H-1,2,3-triazol-5-yl)acetyl]pyrrolidine-2-carboxamide] |
